Results on two molecules are retold here after patent EP2060252A1, “New formulation of galactosylceramide derivatives” (Wittycell, priority 2007, dated 2009).

The conditions of data set [1]: water.
Data set [2] can be described thus: Mixed micelles with bile salts: macroscopic aspect after reconstitution. The class given is physicochemical. As to conditions: for Aspect of the solution after reconstitution: PBS57 200 µg/mL; for Macroscopic observation right after reconstitution with 5% glucose: PBS57 50 µg/mL, ratio bile salt / PBS57 1/1. The protocol: The mixed-micelle solution manufacturing process requires co-solubilization of the lipid and the bile salt into a solvent (ethanol) that is then evaporated before the final aqueous medium is added to obtain the mixed-micellar solution. A 5% glucose solution was used as the aqueous reconstitution medium here.
Both sodium taurocholate and deoxycholate were tested. A first indication that the mixed aggregates are truly formed is the clear aspect of the solution.
PBS57 concentration in the above 2 experiments was 50 µg/mL. The ratio bile salt / PBS57 was here 1/1.
Solutions of PBS57 at 200 µg/mL associated (equimolar ratio) to sodium taurocholate or sodium deoxycholate were manufactured by the same protocol.

Data set [3] in a line: Micelle to vesicle phase transition upon dilution: aspect. In kind it is physicochemical. As to conditions: mixed micellar solution from sodium taurocholate and PBS57 (50 µg/mL). The protocol:
It is well established that phospholipids/bile salt mixed aggregates are going through a phase transition to form vesicles (liposomes) once diluted.
The same experiment was carried out on a mixed micellar solution obtained from sodium taurocholate and PBS57 (50 µg/mL).

Turning to α-galactosylceramide [α-GC], the Thermodynamic aqueous solubility entry in data set [1] was “below 5 µg/mL”.

As for `CCCCCCCC/C=C\CCCCCCCCCCCCCC(=O)N[C@@H](CO[C@H]1O[C@H](CNC(C)=O)[C@H](O)[C@H](O)[C@H]1O)[C@H](O)[C@H](O)CCCCCCCCCCCCCC` [PBS57], the “Aspect of the solution after reconstitution” value in data set [2] (equimolar ratio to sodium deoxycholate) and in data set [2] (equimolar ratio to sodium taurocholate) was “perfectly clear” each time. In addition, the “Macroscopic observation right after reconstitution with 5% glucose” value in data set [2] (excipient Deoxycholate) is reported as “Turbid with large aggregates, flocculation slowly turning to sedimentation”; in data set [2] (excipient Taurocholate), “Slightly turbid”. The Aspect upon dilution result in data set [3] is on record as “slightly turbid suspension”.
